Values quoted from earlier work, collected in Sander's compilation of Henry's law constants (doi:10.1016/j.chroma.2007.11.025).

test: Henry solubility constant Hcp at 298.15 K (mol/(m3 Pa)); settings: reference: Sieg et al. (2008); cited value

Row | Compound | Henry solubility constant Hcp
1 | CCCCCCCC=O [octanal] | 0.019
2 | Fc1ccccc1 [fluorobenzene] | 0.0016
3 | Cc1ccc(C)cc1 [1,4-dimethylbenzene] | 0.0014
4 | CCCCCCC=O [heptanal] | 0.037
5 | CCc1ccccc1 [ethylbenzene] | 0.0013
6 | CCCCCCCCC=O [nonanal] | 0.014
7 | Cc1ccccc1 [methylbenzene] | 0.0015
8 | Cc1ccccc1C [1,2-dimethylbenzene] | 0.0019
9 | ClCCBr [1-chloro-2-bromoethane] | 0.011
10 | CCCCCCCCCC=O [decanal] | 0.0055
11 | Cc1cccc(C)c1 [1,3-dimethylbenzene] | 0.0014
12 | c1ccccc1 [benzene] | 0.0018
